These are literature values, as cited in patent US20090022789A1 (Supernus Pharmaceuticals, Inc., priority 2007, published 2009).

The conditions of the data set: oral administration, IR form.

Each structure is given as a SMILES string.

With `Nc1nnc(-c2cccc(Cl)c2Cl)c(N)n1` [lamotrigine, 3,5-diamino-6-(2,3-dichlorophenyl)-as-triazine], the first-pass metabolism result is on record as “negligible”.
